Test results as given in publication PMC7587962, “Evaluation of Cytotoxicity and α-Glucosidase Inhibitory Activity of Amide and Polyamino-Derivatives of Lupane Triterpenoids” (Molecules, 2020).

How the values were obtained:
Yeast α-Glucosidase = experiment: Yeast α-glucosidase activity assay; assay type: biochemical, S. cerevisiae; settings: pH 6.8, 37 °C, p-nitrophenyl-α-D-glucopyranoside 1 mM; read-out: Yeast α-Glucosidase, IC50 ± SE
Experimental: Taken together, these considerations prompted us to evaluate a series of lupanes with amide function or polyamine chain 11, 12, 16, 18, and 22–26 for α-glucosidase inhibition. Initially, they were screened against α-glucosidase of S. cerevisiae as an accessible and high-throughput model. Confirmatory experiments were performed on isolated rough endoplasmic reticulum vesicles from rat liver, which contain neutral α-glucosidases I and II in a membrane-bound form.
In a 96-well flat transparent plate, the 0.12 U/mL enzyme solution (EC 3.2.1.20, expressed in S. cerevisiae, Sigma #G0660, St. Louis, MO, USA) was incubated with test compounds in 67 mM PBS (pH 6.8) at 37 °C for 5 min. Then, p-nitrophenyl-α-D-glucopyranoside (Sigma #N1377, St. Louis, MO, USA) was added to 1 mM final concentration and an increase in absorbance was recorded for 15 min at 405 nm wavelength with Infinite M200 PRO microplate reader (Tecan, Austria). Test compounds were dissolved in DMSO and diluted to the desired concentration in 67 mM PBS (pH 6.8) supplemented with 0.01% Tween 80 to avoid aggregation. Final DMSO concentration was <0.25% in sample wells, and it was also introduced in control and blank wells. […] Due to the absence of normal distribution of data, a Mann–Whitney U-test was used to determine statistical significance versus enzyme control using GraphPad Prism 8.0.1.

EKVX = system: EKVX; set-up: method as in PMID 25405285; settings: standard drugs used by NCI as control; cited from earlier work
HOP-92 = system: HOP-92; set-up: method as in PMID 25405285; settings: standard drugs used by NCI as control; cited from earlier work
NCI-H23 = system: NCI-H23; set-up: method as in PMID 25405285; settings: standard drugs used by NCI as control; cited from earlier work
HCT-116 = system: HCT-116; set-up: method as in PMID 25405285; settings: standard drugs used by NCI as control; cited from earlier work
HCT-15 = system: HCT-15; set-up: method as in PMID 25405285; settings: standard drugs used by NCI as control; cited from earlier work
SW-620 = system: SW-620; set-up: method as in PMID 25405285; settings: standard drugs used by NCI as control; cited from earlier work
SF-268 = system: SF-268; set-up: method as in PMID 25405285; settings: standard drugs used by NCI as control; cited from earlier work
SF-295 = system: SF-295; set-up: method as in PMID 25405285; settings: standard drugs used by NCI as control; cited from earlier work
SNB-19 = system: SNB-19; set-up: method as in PMID 25405285; settings: standard drugs used by NCI as control; cited from earlier work
MALME-3M = system: MALME-3M; set-up: method as in PMID 25405285; settings: standard drugs used by NCI as control; cited from earlier work
M14 = system: M14; set-up: method as in PMID 25405285; settings: standard drugs used by NCI as control; cited from earlier work
MDA-MB-435 = system: MDA-MB-435; set-up: method as in PMID 25405285; settings: standard drugs used by NCI as control; cited from earlier work
SK-MEL-2 = system: SK-MEL-2; set-up: method as in PMID 25405285; settings: standard drugs used by NCI as control; cited from earlier work
SK-MEL-5 = system: SK-MEL-5; set-up: method as in PMID 25405285; settings: standard drugs used by NCI as control; cited from earlier work
UACC-257 = system: UACC-257; set-up: method as in PMID 25405285; settings: standard drugs used by NCI as control; cited from earlier work
UACC-62 = system: UACC-62; set-up: method as in PMID 25405285; settings: standard drugs used by NCI as control; cited from earlier work
IGROV1 = system: IGROV1; set-up: method as in PMID 25405285; settings: standard drugs used by NCI as control; cited from earlier work
OVCAR-8 = system: OVCAR-8; set-up: method as in PMID 25405285; settings: standard drugs used by NCI as control; cited from earlier work
NCI/ADR-RES = system: NCI/ADR-RES; set-up: method as in PMID 25405285; settings: standard drugs used by NCI as control; cited from earlier work
SK-OV-3 = system: SK-OV-3; set-up: method as in PMID 25405285; settings: standard drugs used by NCI as control; cited from earlier work
786-0 = system: 786-0; set-up: method as in PMID 25405285; settings: standard drugs used by NCI as control; cited from earlier work
A498 = system: A498; set-up: method as in PMID 25405285; settings: standard drugs used by NCI as control; cited from earlier work
ACHN = system: ACHN; set-up: method as in PMID 25405285; settings: standard drugs used by NCI as control; cited from earlier work
SN12C = system: SN12C; set-up: method as in PMID 25405285; settings: standard drugs used by NCI as control; cited from earlier work
UO-31 = system: UO-31; set-up: method as in PMID 25405285; settings: standard drugs used by NCI as control; cited from earlier work
PC-3 = system: PC-3; set-up: method as in PMID 25405285; settings: standard drugs used by NCI as control; cited from earlier work
DU-145 = system: DU-145; set-up: method as in PMID 25405285; settings: standard drugs used by NCI as control; cited from earlier work
MCF7 = system: MCF7; set-up: method as in PMID 25405285; settings: standard drugs used by NCI as control; cited from earlier work
MDA-MB-231/ATCC = system: MDA-MB-231/ATCC; set-up: method as in PMID 25405285; settings: MDA-MB-31/ATCC; standard drugs used by NCI as control; cited from earlier work
HS 578T = system: HS 578T; set-up: method as in PMID 25405285; settings: standard drugs used by NCI as control; cited from earlier work
HL-60(TB) = settings: standard drugs used by NCI as control; cited from earlier work

## C=C(C)[C@@H]1CC[C@]2(C(=O)NCCNCCNCCN)CC[C@]3(C)[C@H](CC[C@@H]4[C@@]5(C)CCC(=O)C(C)(C)[C@@H]5CC[C@]43C)[C@@H]12 [Compound 11]
Yeast α-Glucosidase
  IC50: 4840 ± 1020 nM

## COc1cccc2c1C(=O)c1c(O)c3c(c(O)c1C2=O)C[C@@](O)(C(=O)CO)C[C@@H]3O[C@H]1C[C@H](N)[C@H](O)[C@H](C)O1 [DRB, doxorubicin]
EKVX
  GI50: 410 nM
HOP-92
  GI50: 100 nM
NCI-H23
  GI50: 150 nM
HCT-116
  GI50: 80 nM
HCT-15
  GI50: 6460 nM
SW-620
  GI50: 90 nM
SF-268
  GI50: 100 nM
SF-295
  GI50: 100 nM
SNB-19
  GI50: 40 nM
MALME-3M
  GI50: 120 nM
M14
  GI50: 180 nM
MDA-MB-435
  GI50: 250 nM
SK-MEL-2
  GI50: 170 nM
SK-MEL-5
  GI50: 80 nM
UACC-257
  GI50: 140 nM
UACC-62
  GI50: 120 nM
IGROV1
  GI50: 170 nM
OVCAR-8
  GI50: 100 nM
NCI/ADR-RES
  GI50: 7160 nM
SK-OV-3
  GI50: 220 nM
786-0
  GI50: 130 nM
A498
  GI50: 100 nM
ACHN
  GI50: 80 nM
SN12C
  GI50: 70 nM
UO-31
  GI50: 490 nM
PC-3
  GI50: 320 nM
DU-145
  GI50: 110 nM
MCF7
  GI50: 30 nM
MDA-MB-231/ATCC
  GI50: 510 nM
HS 578T
  GI50: 330 nM
HL-60(TB)
  GI50: 190 nM
